Test results as given in patent US12071414B2, “Apelin receptor agonists and methods of use thereof” (Sanford Burnham Prebys Medical Discovery Institute, priority 2015, dated 2024).

Target: T1, human apelin receptor (APJ, AGTRL-one, APLNR) (Homo sapiens, UniProt P35414)
T1 construct: host or cells: Chinese hamster ovary cells, stably integrated receptor
T1 sequence (P35414 1-380): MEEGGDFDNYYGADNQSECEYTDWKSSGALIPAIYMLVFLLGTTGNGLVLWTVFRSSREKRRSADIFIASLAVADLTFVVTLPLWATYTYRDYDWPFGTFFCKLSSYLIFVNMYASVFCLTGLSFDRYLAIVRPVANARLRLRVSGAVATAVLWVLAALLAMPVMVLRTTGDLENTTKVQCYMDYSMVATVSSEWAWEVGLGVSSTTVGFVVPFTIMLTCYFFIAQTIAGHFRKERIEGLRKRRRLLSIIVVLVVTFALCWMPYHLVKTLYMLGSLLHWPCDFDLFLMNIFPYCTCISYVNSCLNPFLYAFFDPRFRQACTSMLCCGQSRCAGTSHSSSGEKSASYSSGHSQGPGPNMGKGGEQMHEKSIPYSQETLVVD
Assay: cell-based cAMP TR-FRET assay of apelin receptor activation
Details: CHO cells expressing human APJ, forskolin-stimulated cAMP, 0.5 h incubation, 50% of control (apelin-13, 1 nM) response; read-out: Potency Category (EC50)
Method: The assays disclosed herein were performed using cell lines from DiscoveX, Inc. Biological activity was determined to the cell—based assay. This assay detects activation of the receptor by reporting on intracellular cyclic adenosine monophosphate (cAMP) level. Chinese hamster ovary cells engineered to express the stably integrated human apelin receptor (APJ, AGTRL—one, APLNR), pleaded into the wells of the microtiter plate. Cells were stimulated with […] to increase intracellular cyclic AMP. Immediately following, compounds were added to the range of final concentrations 0.0-100 μM, in DMSO (not to exceed a final DMSO concentration greater than 1% ν/ν), and allowed to incubate with the cells for 0.5 h. At the end of the incubation, cells were lysed to stop APJ signaling and cAMP was quantified using a commercially available competitive immunoassay kit that applies homogenous time—resolved florescence energy transfer (TR—FRET). The assay is based on the competition between a europium (Eu) chelate—labeled cAMP donor tracer and cellular cAMP for binding sites on a cAMP—specific monoclonal antibody labeled with an acceptor fluorophore. When antibodies are bound to the cAMP tracer light emissions at 320 nm stimulate the energy transfer from the donor to the acceptor, which in turn emits light at 665 nm. In the presence of competitive unlabeled cAMP (derived from the activity of the receptor or forskolin-stimulated production of cAMP), the labelled cAMP tracer is dissociated from the cAMP antibody, resulting in a loss of FRET signal. The amount of light emitted by the FRET is inversely proportional to the cAMP generated by the cell/receptor system. Potency and efficacy at APJ are reported in reference to the canonical APJ receptor agonist apelin—13 when tested at 1 nM. […] Compound efficacy (% response) is reported as a percentage of the maximal apein-13 response at 1 nM (control). Potencies were calculated by fitting a […] logistic curve to concentration response consisting of at least 10 discrete data points spanning effective range of the compounds in the cell-based assay that measures cAMP. […] Category B is 200-500 nM; Category C is 100-200 nM; Category D is 50-100 nM; and Category E is <50 nM.

Row | Structure (SMILES) | EC50 [nM]
1 | COc1cc2nc(NC(=O)Cc3cccc(S(=O)(=O)C4CCCC4)c3)sc2cc1OC | > 500
2 | CCS(=O)(=O)c1ccc(C(Oc2ccc(Cl)cc2)C(=O)Nc2nc3cc(OC)c(OC)cc3s2)cc1 (stereo not shown) | 100 to 200
3 | CCN(CC)c1ccc2sc(NC(=O)C(Oc3ccc(C#N)cc3)c3ccc(S(=O)(=O)CC)cc3)nc2c1 (stereo not shown) | > 500
4 | CCS(=O)(=O)c1ccc(CC(=O)Nc2nc3cc(OC)c(OC)cc3o2)cc1 | > 500
5 | CCS(=O)(=O)c1ccc(C(Oc2ccc(C#N)cc2)C(=O)Nc2nc3ccc(OC)c(OC(C)C)c3s2)cc1 (stereo not shown) | < 50
6 | CCS(=O)(=O)c1ccc(C(Oc2ccc(C#N)c(C)c2)C(=O)Nc2nc3cc(OC)c(OC)cc3s2)cc1 (stereo not shown) | 50 to 100
7 | CCS(=O)(=O)c1ccc(C(CCOC)C(=O)Nc2nc3cc(OC)c(OC)cc3s2)cc1 (stereo not shown) | > 500
8 | CCS(=O)(=O)c1ccc(C(Oc2ccc(C#N)cc2)C(=O)Nc2nc3cc(OC)c(OC)cc3n2C)cc1 (stereo not shown) | > 500
9 | CCS(=O)(=O)c1ccc(C(Oc2ccc(C(C)C)cc2)C(=O)Nc2nc3cc(OC)c(OC)cc3s2)cc1 (stereo not shown) | 200 to 500
10 | CCCCS(=O)(=O)c1ccccc1C(Oc1ccc(C#N)cc1)C(=O)Nc1nc2cc(OC)c(OC)cc2s1 (stereo not shown) | 200 to 500
11 | CCS(=O)(=O)c1ccc(C(Oc2ccc(OC)cc2)C(=O)Nc2nc3ccc4c(c3s2)OCCO4)cc1 (stereo not shown) | > 500
12 | COc1cc2nc(NC(=O)C(Oc3ccc(C#N)cc3)c3ccc(S(=O)(=O)c4ccc(Cl)cc4)cc3)sc2cc1OC (stereo not shown) | 200 to 500
13 | COCCS(=O)(=O)c1ccc(CC(=O)Nc2nc3cc(OC)c(OC)cc3s2)cc1 | > 500
14 | CCS(=O)(=O)c1ccc(C(Oc2ccc(C#N)cc2)C(=O)Nc2nc3cc4c(cc3s2)OCCO4)cc1 (stereo not shown) | > 500
15 | COCCNS(=O)(=O)c1ccc(C(Oc2ccc(C#N)cc2)C(=O)Nc2nc3cc(OC)c(OC)cc3s2)cc1 (stereo not shown) | 200 to 500
16 | CCS(=O)(=O)c1cccc(C(Oc2ccc(C#N)cc2)C(=O)Nc2nc3ccc(OCCOC)cc3s2)c1 (stereo not shown) | > 500
17 | CCS(=O)(=O)c1ccc(C(Nc2ccccc2C)C(=O)Nc2nc3cc(OC)c(OC)cc3s2)cc1 (stereo not shown) | > 500

Row | Structure (SMILES) | EC50 [nM]
18 | COCCOc1ccc(C(Oc2ccc(C#N)cc2)C(=O)Nc2nc3cc(OC)c(OC)cc3s2)cc1 (stereo not shown) | < 50
19 | COCCNC(=O)c1ccc(OC(C(=O)Nc2nc3cc(OC)c(OC)cc3s2)c2ccc(C#N)cc2)cc1 (stereo not shown) | > 500
20 | CCS(=O)(=O)c1ccc(C(Oc2ccc(C#N)cc2)C(=O)Nc2nc3ccc(F)c(OC)c3s2)cc1 (stereo not shown) | > 500
21 | COc1cc2nc(NC(=O)C(Oc3ccc(C#N)cc3)c3ccc(S(=O)(=O)NCCN(C)C)cc3)sc2cc1OC (stereo not shown) | < 50
22 | COc1cc2nc(NC(=O)Cc3ccc(C(=O)N(C)C)cc3)sc2cc1OC | > 500
23 | CCS(=O)(=O)c1ccc(C(Oc2ccc(C#N)cc2)C(=O)Nc2nc3ncc(OC)cc3s2)cc1 (stereo not shown) | > 500
24 | CCS(=O)(=O)c1ccc(C(Nc2ccc(C#N)cc2)C(=O)Nc2nc3cc(OC)c(OC)cc3s2)cc1 (stereo not shown) | < 50
25 | COc1ccc(S(=O)(=O)c2cccc(C(Oc3ccc(C#N)cc3)C(=O)Nc3nc4cc(OC)c(OC)cc4s3)c2)cc1 (stereo not shown) | > 500
26 | CCS(=O)(=O)c1ccc(C(Oc2ccc(C#N)cc2)C(=O)Nc2nc3ccc(OC)c(OC)c3s2)cc1 (stereo not shown) | 50 to 100
27 | COc1cc2nc(NC(=O)C(Oc3ccc(OCCN4CCCCC4)cc3)c3ccc(C#N)cc3)sc2cc1OC (stereo not shown) | 50 to 100
28 | CCS(=O)(=O)c1ccc(C(Oc2cccc(OC)c2)C(=O)Nc2nc3cc(OC)c(OC)cc3s2)cc1 (stereo not shown) | > 500
29 | COc1cc2nc(NC(=O)C(Oc3ccc(C#N)cc3)c3ccccc3S(=O)(=O)Cc3ccccc3)sc2cc1OC (stereo not shown) | < 50
30 | COc1cc2nc(NC(=O)C(Oc3ccc(C(=O)NCCO)cc3)c3ccc(C#N)cc3)sc2cc1OC (stereo not shown) | 200 to 500
31 | CCc1ccc(OC(C(=O)Nc2nc3cc(OC)c(OC)cc3s2)c2ccc(S(=O)(=O)CC)cc2)cc1 (stereo not shown) | 200 to 500
32 | CCS(=O)(=O)c1ccc(CC(=O)Nc2nc3c(OC)ccc(OC)c3s2)cc1 | > 500
33 | COc1ccc(C(Oc2ccc(C#N)cc2)C(=O)Nc2nc3cc(OC)c(OC)cc3s2)cc1 (stereo not shown) | < 50
34 | CCS(=O)(=O)c1ccc(C(Oc2ccc(C#N)cc2)C(=O)Nc2nc3ccc4c(c3s2)OCCO4)cc1 (stereo not shown) | 50 to 100
